{"source": "patent US5177112A", "about": "“Substituted 2-aminotetralins” (Whitby Research, Inc., priority 1991, dated 1993)", "key": {"D-2 dopamine receptor [1]": {"target": "T1, D-2 dopamine receptor (Bos taurus, UniProt P20288)", "T1 sequence (P20288 whole entry)": "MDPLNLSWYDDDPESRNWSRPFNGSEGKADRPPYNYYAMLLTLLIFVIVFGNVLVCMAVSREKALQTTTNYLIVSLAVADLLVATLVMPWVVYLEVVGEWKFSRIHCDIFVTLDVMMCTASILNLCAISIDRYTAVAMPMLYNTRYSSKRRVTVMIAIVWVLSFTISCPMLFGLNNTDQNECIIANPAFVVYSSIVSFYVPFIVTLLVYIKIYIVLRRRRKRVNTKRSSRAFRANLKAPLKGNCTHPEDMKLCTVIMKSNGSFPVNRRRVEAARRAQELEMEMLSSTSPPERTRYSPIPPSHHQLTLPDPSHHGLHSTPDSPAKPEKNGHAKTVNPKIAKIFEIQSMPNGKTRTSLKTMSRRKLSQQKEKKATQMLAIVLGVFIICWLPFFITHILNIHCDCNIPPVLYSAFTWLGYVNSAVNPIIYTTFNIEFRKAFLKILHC", "details": "stated for contrast, no test data given; cited from earlier work"}, "intraocular pressure [2]": {"test_system": "intraocular pressure", "details": "rabbits; cited from earlier work"}, "intraocular pressure [3]": {"test_system": "intraocular pressure", "details": "monkeys; cited from earlier work"}, "ocular function": {"test_system": "ocular function", "details": "in vivo; cited from earlier work"}, "intraocular pressure [4]": {"test_system": "intraocular pressure", "details": "man; eyedrops; cited from earlier work"}, "D2 receptors": {"target": "T2, D2 receptors (Bos taurus, UniProt P20288)", "T2 construct": "The caudate nuclei were dissected out and homogenized in Buffer A; from tissue; host or cells: bovine caudate nuclei membranes (brains from a local slaughterhouse)", "T2 sequence (P20288 whole entry)": "as above", "test": "D2 receptor specific binding, [3H]-Spiperone", "set-up": "species or system bovine", "details": "for Ki: bovine caudate nuclei, [3H]-Spiperone, 30 nM ketanserin, 75 minutes at room temperature; for increase in selectivity for D2 receptors: compared to the thienyl compound", "experimental": "(§1) Dopamine receptor assays: Specific binding studies to test the affinity of the compounds for D1, D2 and α2 receptors were conducted using bovine caudate nuclei prepared as follows:\n(§2) Bovine brains were obtained fresh from a local slaughterhouse. The caudate nuclei were dissected out and homogenized in Buffer A (50 mM Tris; 1 mM Na2 -EDTA; 5 mM KCl; 1 mM MgCl2; 2 mM CaCl2; pH 7.4) using a Brinkman Polytron. The homogenate was centrifuged at 40,000×g for 20 minutes and washed once. The pellett was resuspended in Buffer A, incubated at 37° C. for 15 minutes, then centrifuged. The pellet was washed once more, resuspended to a protein concentration of 5-10 mg/ml in Buffer A and frozen at -70° C. until used.\n(§3) The following tritiated drugs were used as radioligands in the binding studies:\n[^3 H]-Spiperone 21-24 Ci/mmol for D2 receptors\n(§4) [^3 H]-spiperone, [^3 H]-SCH22390, and [^3 H]-ketanserin were obtained from New England Nuclear, Boston, Me.\n(§5) The radioligands were incubated with various concentrations of competing drug and the appropriate membrane source for 75 minutes at room temperature for D2 receptors, 15 minutes at 37° C. for D1 receptors, or 30 minutes at room temperature for α2 receptors. Specific binding was defined using 1 μM butaclamol (D2), 1 μM SCH23390 (D1), or 1 μM yohimbine (α2). In addition the D2 assays contained 30 nM ketaserin in order to block the binding of ^3 H-spiperone to 5HT2 receptors. The assays were terminated by filtration using a 24-port Brandell cell harvester over filters that had been previously soaked in 0.1% polyethyleneimine, and the filters were washed three times by filtration of cold buffer. […] The results are presented as Ki values if the data were best fitted to a one-site model, or as KH and KL values if a two-site model produced the better fit."}, "D1 receptors": {"target": "T3, D1 receptors (Bos taurus, UniProt Q95136)", "T3 construct": "The caudate nuclei were dissected out and homogenized in Buffer A; from tissue; host or cells: bovine caudate nuclei membranes (brains from a local slaughterhouse)", "T3 sequence (Q95136 whole entry)": "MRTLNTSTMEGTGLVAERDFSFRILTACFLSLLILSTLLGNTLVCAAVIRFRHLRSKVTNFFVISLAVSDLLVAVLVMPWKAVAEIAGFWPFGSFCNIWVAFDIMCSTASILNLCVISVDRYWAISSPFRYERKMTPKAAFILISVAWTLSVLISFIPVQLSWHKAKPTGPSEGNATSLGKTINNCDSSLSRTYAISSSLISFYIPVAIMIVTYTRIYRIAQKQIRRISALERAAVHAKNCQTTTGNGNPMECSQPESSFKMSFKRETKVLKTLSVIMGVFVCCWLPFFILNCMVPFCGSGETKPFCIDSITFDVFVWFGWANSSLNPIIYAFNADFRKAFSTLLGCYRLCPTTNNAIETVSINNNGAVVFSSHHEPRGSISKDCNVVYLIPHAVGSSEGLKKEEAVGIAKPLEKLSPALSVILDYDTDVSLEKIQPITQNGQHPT", "test": "D1 receptor specific binding, [3H]-SCH23390", "set-up": "species or system bovine", "experimental": "as §1, §2, §3, §4, §5"}, "α2-adrenergic receptors": {"target": "T4, α2-adrenergic receptors (Rattus norvegicus, UniProt P22909)", "T4 construct": "from tissue; host or cells: cerebral cortex membranes of male Sprague Dawley rats", "T4 sequence (P22909 1-465)": "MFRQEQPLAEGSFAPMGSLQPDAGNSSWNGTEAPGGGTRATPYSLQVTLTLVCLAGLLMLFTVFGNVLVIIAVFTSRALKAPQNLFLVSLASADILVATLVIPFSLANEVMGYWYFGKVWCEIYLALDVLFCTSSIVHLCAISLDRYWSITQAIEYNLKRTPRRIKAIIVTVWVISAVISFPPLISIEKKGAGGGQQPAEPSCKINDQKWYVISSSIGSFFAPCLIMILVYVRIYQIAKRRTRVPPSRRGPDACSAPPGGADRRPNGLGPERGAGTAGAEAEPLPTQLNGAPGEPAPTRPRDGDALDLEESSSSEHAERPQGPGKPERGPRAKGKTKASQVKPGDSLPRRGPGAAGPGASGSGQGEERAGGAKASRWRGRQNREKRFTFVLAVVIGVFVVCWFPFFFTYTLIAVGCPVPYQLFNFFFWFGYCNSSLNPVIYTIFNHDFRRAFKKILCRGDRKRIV", "test": "α2-adrenergic receptor specific binding, [3H]-Para aminoclonidine", "experimental": "as §1\nα2-adrenergic receptors assays were conducted using the rat cerebral cortex prepared as follows:\nMale Sprague Dawley rats were killed by decapitation and the brains removed. The cerebral cortices were homogenized in 50 mM Tris; 2 mM MgCl2 (pH 7.4), and centrifuged at 40,000×g for 10 minutes. The pellet was washed once, resuspended in Tris/MgCl2 and incubated with 8 units/ml adenosine deaminase at 37° C. for 30 minutes. The homogenate was centrifuged, washed once, resuspended to a protein concentration of 5-10 mg/ml and frozen at -70° C. until use.\nas §3\n[^3 H]-Para aminoclonidine 48-52 Ci/mmol for α2 -adrenergic receptors.\n[^3 H]-paraaminoclonidine was obtained from Amersham, Arlington Heights, Ill. Yohimbine was obtained from Sigma Chemical Co., St. Louis, Mo.\nas §5"}, "D-2 dopamine receptor [5]": {"target": "T1, D-2 dopamine receptor", "test": "displacement of specific D-2 dopamine receptor binding of tritiated racemic 2-(N-propyl-N-2-thienylethylamino)-5-hydroxytetralin", "set-up": "homogenates of calf brain corpus striatum; from tissue; host or cells: calf brain corpus striatum homogenate; species or system calf", "experimental": "The pharmacological activity of the product of Example 2 was determined by examining its ability to displace the specific D-2 dopamine receptor binding of a tritium-containing racemic mixture of 2-(N-propyl-N-2-thienylethylamino)-5-hydroxytetralin to homogenates of calf brain corpus striatum."}, "D-1 dopamine receptor": {"target": "T5, D-1 dopamine receptor (Bos taurus, UniProt Q95136)", "T5 construct": "membranes isolated from the striatum of bovine brain; from tissue; host or cells: bovine brain striatum membranes", "T5 sequence (Q95136 whole entry)": "as the sequence (Q95136 whole entry) above", "test": "displacement of tritium labeled SCH 23390 at the D-1 dopamine receptor, striatum membranes", "assay_type": "binding", "details": "bovine brain striatum membranes", "experimental": "The activity at the D-1 dopamine receptor was tested by the method described in Raisman et al. Eur. J. Pharmacol 113: (1985), pp. 467-468, which utilizeds membranes isolated from the striatum of bovine brain. […] Thus, the 1C50 value for the compound of Example 2 is >100,000 at the D-1 receptor."}, "[6]": {"details": "bovine caudate nuclei, [3H]-SCH23390, 15 minutes at 37° C., read-out: Ki D1"}, "[7]": {"details": "rat cerebral cortex, [3H]-Para aminoclonidine, 30 minutes at room temperature, read-out: Ki α2"}}, "note": "Where two headings read alike, the source gives them in different places."}
{"smiles": "NCCc1ccc(O)c(O)c1", "note": "[dopamine]", "values": [{"measurement": "binding at the D-1 and D-2 receptor (comparison substances)", "setting": "D-2 dopamine receptor [1]", "value": "substantially equivalent binding at the D-1 and D-2 receptor"}]}
{"smiles": "CCCN1C[C@H](CSC)C[C@@H]2c3cccc4[nH]cc(c34)C[C@H]21", "note": "[pergolide]", "values": [{"measurement": "intraocular pressure", "setting": "intraocular pressure [2]", "value": "lower the intraocular pressure of rabbits"}, {"measurement": "intraocular pressure", "setting": "intraocular pressure [3]", "value": "lowered the intraocular pressure of monkeys"}]}
{"smiles": "CN(C)CCc1ccc(O)c(O)c1", "note": "[N,N-dimethyl-dopamine]", "values": [{"measurement": "alteration of ocular function", "setting": "ocular function", "value": "may alter ocular function"}]}
{"smiles": "CN1C[C@H](CC#N)C[C@@H]2c3cccc4[nH]c(Cl)c(c34)C[C@H]21", "note": "[lergotrile]", "values": [{"measurement": "intraocular pressure", "setting": "intraocular pressure [2]", "value": "lower the intraocular pressure of rabbits"}, {"measurement": "intraocular pressure", "setting": "intraocular pressure [3]", "value": "lowered the intraocular pressure of monkeys"}]}
{"smiles": "CC(C)C[C@H]1C(=O)N2CCC[C@H]2[C@]2(O)O[C@](NC(=O)[C@@H]3C=C4c5cccc6[nH]c(Br)c(c56)C[C@H]4N(C)C3)(C(C)C)C(=O)N12", "note": "[bromocriptine]", "values": [{"measurement": "intraocular pressure", "setting": "intraocular pressure [2]", "value": "lower the intraocular pressure of rabbits"}, {"measurement": "intraocular pressure", "setting": "intraocular pressure [4]", "value": "may lower intraocular pressure"}]}
{"smiles": "CCCN(CCc1csc2ccccc12)C1CCc2c(O)cccc2C1", "note": "(centres unmarked)", "values": [{"measurement": "Ki", "setting": "D2 receptors", "value": 130, "unit": "nM"}, {"measurement": "increase in selectivity for D2 receptors", "setting": "D2 receptors", "value": "two-fold"}, {"measurement": "Ki", "setting": "D1 receptors; [6]", "value": 1950, "unit": "nM"}, {"measurement": "Ki", "setting": "α2-adrenergic receptors; [7]", "value": 250, "unit": "nM"}]}
{"smiles": "CN1CCc2cccc3c2[C@H]1Cc1ccc(O)c(O)c1-3", "note": "[apomophine]", "values": [{"measurement": "binding at the D-1 and D-2 receptor (comparison substances)", "setting": "D-2 dopamine receptor [1]", "value": "substantially equivalent binding at the D-1 and D-2 receptor"}]}
{"smiles": "CCCN(CCc1cccs1)C1CCc2c(O)cccc2C1", "note": "(racemic) [2-(N-propyl-N-2-thienylethylamino)-5-hydroxytetralin]", "values": [{"measurement": "Kd", "setting": "D-2 dopamine receptor [5]", "value": 1.6, "unit": "nM"}, {"measurement": "bmax", "setting": "D-2 dopamine receptor [5]; tritium-containing racemic mixture, calf brain corpus striatum homogenates", "value": 26.0, "unit": "picomoles/gm"}]}
{"smiles": "CNCCc1ccc(O)c(O)c1", "note": "[N-methyldopamine]", "values": [{"measurement": "alteration of ocular function", "setting": "ocular function", "value": "may alter ocular function"}, {"measurement": "mechanism: aqueous humor formation", "setting": "ocular function", "value": "suppressing aqueous humor formation"}]}
{"smiles": "CCCN(CCc1ccc2ccccc2c1)C1CCc2c(O)cccc2C1", "note": "(centres unmarked)", "values": [{"measurement": "Ki", "setting": "D2 receptors", "value": 80, "unit": "nM"}, {"measurement": "increase in selectivity for D2 receptors", "setting": "D2 receptors", "value": "six and a half-fold"}, {"measurement": "Ki", "setting": "D1 receptors; [6]", "value": 6460, "unit": "nM"}, {"measurement": "Ki", "setting": "α2-adrenergic receptors; [7]", "value": 2500, "unit": "nM"}]}
{"smiles": "CCCN(CCc1cc2ccccc2s1)C1CCc2c(O)cccc2C1", "note": "(centres unmarked) [Example 2, 2-(N-n-propyl-N-2-[2-benzothienyl]ethylamino)-5-hydroxytetralin]", "values": [{"measurement": "IC50", "setting": "D-1 dopamine receptor; D-1, tritium labeled SCH 23390, read-out: 1C50 value at the D-1 receptor", "value": "> 100000", "unit": "nM"}, {"measurement": "displacement of tritium labeled SCH 23390", "setting": "D-1 dopamine receptor; concentration range 10^-11 to 10^-4 moles", "value": "did not displace"}, {"measurement": "IC50", "setting": "D-2 dopamine receptor [5]; D-2, calf brain corpus striatum homogenates, read-out: IC50 (concentration of drug required to inhibit the binding of labelled drug by 50 percent)", "value": 0.56, "unit": "nM"}, {"measurement": "D-2 as opposed to D-1 binding selectivity", "setting": "D-2 dopamine receptor [5]; comparison of D-2 and D-1 binding", "value": "extremely selective D-2 as opposed to D-1 binding"}]}
{"smiles": "CCCN(CCC)CCc1ccc(O)c(O)c1", "note": "[N,N-di-n-propyldopamine]", "values": [{"measurement": "alteration of ocular function", "setting": "ocular function", "value": "may alter ocular function"}]}
{"smiles": "CCCN(CCc1cccs1)C1CCc2c(O)cccc2C1", "note": "(centres unmarked)", "values": [{"measurement": "Ki", "setting": "D2 receptors", "value": 110, "unit": "nM"}, {"measurement": "Ki", "setting": "D1 receptors", "value": 1000, "unit": "nM"}, {"measurement": "Ki", "setting": "α2-adrenergic receptors", "value": 190, "unit": "nM"}]}
